Target: endoglucanase
Experiment: In vitro endoglucanase inhibition, CMC assay (I50 determination)
Type: biochemical, R. flavipes
Settings: foregut/salivary gland/midgut (endogenous) and hindgut (symbiotic) fractions, FIG. 4
Protocol: Gut dissections were carried out for cellulase distribution and inhibition studies. For dissections, termites were immobilized on ice, decapitated, and the entire digestive tract removed through a small incision made in the abdominal exoskeleton. For cellulase distribution studies, dissected guts were divided into three regions: (i) salivary gland+foregut, (ii) midgut and (iii) hindgut. For inhibition studies, guts were divided into two major components that included: (i) foregut, salivary gland and midgut, and (ii) hindgut. […]
Cellulase activity assays were adapted from Han et al. in “Characterization of a bifunctional cellulase and its structural gene,” J. Biol. Chem. 270 (1995) 26012-26019, with optimization for a 96-well microplate format. […] Color was allowed to develop on ice for 15 min before measuring absorbance at 540 nm relative to a glucose standard curve.
The efficacy of the three carbohydrate-based cellulase inhibitors CBI (FIG. 1D), FMG (FIG. 1E) and FMCB (FIG. 1F) was tested against two different gut enzyme sources that included (i) endogenous termite cellulases from salivary gland, foregut and midgut, and (ii) symbiotic cellulases from the hindgut. […] Percent inhibition was calculated relative to methanol controls. […]

Row | Compound | I50 against endoglucanase activity
1 | fluoromethyl glucose [FMG] | virtually no inhibitory properties
2 | OC[C@@H]1[C@@H](O[C@@H]2O[C@H](CO)[C@@H](O)[C@H](O)[C@H]2O)[C@H](O)[C@@H](O)c2nccn21 [CBI, cellobioimidazole] | virtually no activity

From patent US20080107619A1, “Carbohydrate based cellulase inhibitors as feeding stimulants in termites” (University of Florida Research Foundation, Inc., priority 2006, published 2008)
